Measurements from patent publication US20240115581A1, “Combination therapy for the treatment or prevention of neurological disorders” (Norwegian University of Science and Technology (NTNU), priority 2022, published 2024).

How the values were obtained:
3xTg AD mice [1] = experiment: Quantification of amyloid plaques (number, size) in dSub after intraventricular infusions; assay type: in vivo; settings: Lonafarnib 80 mg/kg intraventricular, 10 days, 14 months-old 3xTg AD mice
Protocol: Mice were administered a lethal dose of sodium pentobarbital (100 mg/ml; Apotekforeningen, Oslo, Norway) and transcardially perfused with Ringer's solution followed by paraformaldehyde (PFA, 4%; Sigma-Aldrich) in 125 mM phosphate buffer (PB). Brains were extracted and fixed for a minimum of 24 h in PFA at 4° C. and transferred to a 2% DMSO solution prepared in PB for 24 h at 4° C. Brains were sectioned coronally at 40 μm on a freezing-sliding microtome (Microm HM430, ThermoFisher Scientific, Waltham, MA, United States).
An incision was made in the non-implanted hemisphere for visualization of the control hemisphere. Immunohistochemical processing was conducted on the tissue. […]

mice = experiment: Observation of side-effects during intraventricular drug infusions; assay type: in vivo; settings: intraventricular infusion: 50 mg/kg Fasudil for 14 days; 80 mg/kg Lonafarnib for 10 days
Protocol: Fasudil and Lonafarnib have previously been delivered using DMSO, which can damage the BBB and mitochondria as well as cause apoptosis. […] Previous research has shown that ˜98% of all small molecules are not transported across the BBB, whilst other research has shown poor drug transport from CSF to the brain. Taking drug transport across the BBB, and from CSF into the brain parenchyma into consideration, dosages of both 25, 50 and 80 mg/kg were administered in initial pilot experiments.
(§1) In these experiments, a final concentration of 50 mg/kg of Fasudil (10 mM; Selleck Chemicals, Houston, TX, United States) was infused for 14 days in mice and stored at −80° C., whilst a final concentration of 80 mg/kg of Lonafarnib (5 mM; Cayman Chemical, Ann Arbor, MI, United States) was infused for 10 days and stored −20° C. between infusions. […] The same dosages were used during combinatorial infusions of Fasudil and Lonafarnib (administered for a duration of 7 days) in mice (n=4) as the drugs target independent intracellular pathways. All dosages in ml were calculated using; dosage (mg)/concentration (mg/ml)=dose×ml) and were infused at a volume of 60 μl at a rate of 1 μl/min using saline as a control vehicle. […]

3xTg AD mice [2] = experiment: Quantification of intraneuronal Aβ (Aβ+ neurons) in dSub after drug infusions; assay type: in vivo; settings: Lonafarnib 80 mg/kg intraventricular, 10 days; young 3xTg AD mice
Protocol: as §1
Effect size (Cohen's D) was calculated based on initial experiments between animals infused with Fasudil and animals infused with a vehicle, and the resulting effects on intraneuronal Aβ in dSub. Based on each group consisting of n=2 animals, an effect size of 0.75 was calculated (0.8 is considered a large effect size). […] Behavioral performance in the morphed environments of the context-dependent spatial memory task was calculated as follows: dig in square-consistent location=1, dig in circle-consistent location=0, dig in any other location=0.5. […]

3xTg AD mice [3] = experiment: Multiplex ELISA of Aβ40, Aβ42, p-tau and t-tau in CSF sampled by push-pull microdialysis; assay type: in vivo; settings: Lonafarnib, day 10 of infusion, average across younger (injected with AAV-tau) and older mice, vs vehicle
Protocol: Animals were implanted with microdialysis guide cannulas 2 months following injections. Push-pull microdialysis apparatus and sampling Push-pull microdialysis was conducted as previously described (Bjorkli et al., 2021 supra). A refrigerated fraction collector (CMA 470) was set to 6° C. for the storage of collected CSF in 300 μl low-retention polypropylene plastic vials (Harvard Apparatus, Cambridge, MA, United States). Fluorinated ethylene propylene (FEP) peristaltic tubing (CMA Microdialysis AB, Kista, Sweden) was placed inside each plastic vial for collection and connected to the cassette of the peristaltic roller pump (Reglo ICC Digital). This peristaltic FEP tubing was connected to the outlet side of microdialysis probes (β-irrigated 2 mDa microdialysis probe; CMA 7; CMA Microdialysis AB, Kista, Sweden) with a polyethersulfone 2 mm membrane with tubing adapters bathed in 75% ethanol. FEP tubing (CMA Microdialysis AB, Kista, Sweden) was connected to each microsyringe. The FEP tubing was then connected to the inlet part of the microdialysis probes. Transparent cages were prepared with 1.5 cm of bedding, filled water bottles, and treats. Saline or drugs were loaded inside a gastight microsyringe (CMA Microdialysis AB, Kista, Sweden), which was placed into a syringe pump (CMA 4004). The “dead volume” of the FEP outlet tubing ([…]) was calculated. 100 cm of FEP outlet tubing was used, and therefore the first […] sampled from each animal were discarded. Prior to inserting the microdialysis probes into the guide cannula, the probe was conditioned in 75% ethanol for better recovery of analytes. At the conclusion of microdialyte sampling, the vials of 60 μl CSF were centrifuged and kept at −80° C. until the samples were analyzed with multiplex ELISA.
(§2) In these experiments, a final concentration of 50 mg/kg of Fasudil (10 mM; Selleck Chemicals, Houston, TX, United States) was infused for 14 days in mice and stored at −80° C., whilst a final concentration of 80 mg/kg of Lonafarnib (5 mM; Cayman Chemical, Ann Arbor, MI, United States) was infused for 10 days and stored −20° C. between infusions. […] All dosages in ml were calculated using; dosage (mg)/concentration (mg/ml)=dose×ml) and were infused at a volume of 60 μl at a rate of 1 μl/min using saline as a control vehicle. […]
The MILLIPLEX® MAP human Aβ and tau magnetic bead panel 4-plex ELISA kit (Millipore, Burlington, MA, United States) and the Bio-Plex 200 System instrument (Biorad, Hercules, CA, United States) were used to assess simultaneously the concentrations of Aβ40, Aβ42, total tau (t-tau), and phosphorylated tau at Thr181 (p-tau) in CSF samples. The samples were undiluted and analyzed in duplicates.

[4] = cited from earlier work
3xTg AD mice [5] = experiment: LAMP1 immunolabelling in dSub; assay type: in vivo; settings: Lonafarnib infused (n=4) vs vehicle (n=8)
Source text: We immunolabelled for lysosomal associated membrane protein 1 (LAMP1) in 3xTg AD mice.

[6] = test system: 3xTg AD mice injected with AAV-tau; experiment: Quantification of tau+ neurons in LEC layer II after AAV-tau injection and intraventricular infusion; assay type: in vivo; settings: Lonafarnib 80 mg/kg intraventricular, 10 days; 6 months-old 3xTg AD mice; n.s.
Protocol: Mice were treated identically to microdialysis guide implantation surgeries, up until deriving stereotaxic coordinates. To target LEC layer II, a craniotomy was made at 0.5 mm anterior to lambda and ˜4 mm lateral (dependent on animal weight) to the midline. A Hamilton microsyringe (Neuros 32-gauge syringe, 5 μl, Hamilton company, Nevada, United States) was lowered vertically into the brain to a depth ˜3.6 mm (dependent on animal weight) from the surface, and 300-1,500 nl of viruses was injected using a microinjector (Nanoliter 2010, World Precision Instruments Inc., United States). We injected the adeno-associated virus (AAV)8 GFP-2a-P301 Ltau (with the chicken beta actin [CBA] promoter; hereafter referred to as AAV-tau). In AAV-tau the short 2A peptide cleaves GFP and human tau during translation at the ribosome. […]
as §2

## NC(=O)N1CCC(CC(=O)N2CCC([C@H]3c4ncc(Br)cc4CCc4cc(Cl)cc(Br)c43)CC2)CC1 [Lonafarnib, 4-(2-{4-[(11R)-3,10-dibromo-8-chloro-6,11-dihydro-5H-benzo[5,6]cyclohepta[1,2-b]pyridin-11-yl]piperidin-1-yl}-2-oxoethyl)piperidine-1-carboxamide]
3xTg AD mice [1]; n.s.
  size of amyloid plaques in dSub compared to vehicle: moderately increased
3xTg AD mice [1]; p=0.0017
  number of dense-core amyloid plaques (overlapping with MC1 immunolabelling) in dSub compared to vehicle infused mice: effectively reduced
mice
  observable side-effects: no observable side-effects
3xTg AD mice [2]
  number of Aβ+ neurons in dSub: did not affect
3xTg AD mice [3]; n.s.
  CSF AB42 levels: moderately reduced
  CSF p-tau levels: moderately reduced
3xTg AD mice [3]; p<0.01
  CSF Aβ40 levels: effectively reduced
  CSF t-tau levels: effectively reduced
[4]
  solubility in aqueous buffers: sparingly soluble
3xTg AD mice [5]
  LAMP1+ neurons in dSub compared to vehicle infused mice: more prominent
[6]
  number of tau+ neurons in LEC following injection of AAV-tau: moderately reduced
